Laboratory results published in patent publication US7163953B2, “Benzylether derivatives” (Hoffmann-La Roche Inc., priority 2004, dated 2007).

Biological target: T1, HER-2 (Homo sapiens, UniProt P04626)
T1 construct: endogenous in cells; host or cells: Calu-3 (human non-small-cell lung cancer, ATCC HTB-55)
Assay: Inhibition of HER-2 phosphorylation in Calu-3 tumor cell line
Assay type: cell-based
Settings: compound concentration 1 μM; Calu-3 cells, 16 h incubation; pY 1248 in HER-2; relative to DMSO control; read-out: Percent inhibition of HER-2-phosphorylation
Description: Inhibition of HER-2 Phosphorylation in Calu-3 Tumor Cell Line
2×10^5 Calu-3 cells (Non-Small-Cell Lung Cancer cells, ATTC HTB-55) per well were plated in a 12-well plate. After 4 days cells were starved for 16 h in Dulbecco's Modified Eagle Medium (DMEM)/0.5% Fetal Calf Serum (FCS)/1% Glutamine. During this 16 h period cells were incubated with a solution of the test compound in dimethylsulfoxide (DMSO), so that the final concentration of the compound is 1 μM and the final volume of DMSO is 0.5%. […] Cell lysates were analyzed on a Sodium Dodecyl Sulfate Polyacrylamide Gel Electrophoresis (SDS PAGE) and after transfer to a nitrocellulose membrane detected with an antibody specifically recognizing the pY 1248 in HER-2 (phosphorylated tyrosine residue 1248 of human […]). After incubation with an anti rabbit antibody coupled to POD (peroxidase available from Biorad, Munich, Germany) signals were detected by chemiluminescence (ECL, Amersham). Inhibition of HER-2 phosphorylation is calculated as a percentage of the control, which is treated with DMSO only. The percentage of the inhibition is calculated according to the following formula: Inhibition in %=100−(Phosphorylated-HER2-Signal of Test Sample* 100/Phosphorylated-HER2-Signal DMSO-control).

T1 sequence (P04626 23-1255): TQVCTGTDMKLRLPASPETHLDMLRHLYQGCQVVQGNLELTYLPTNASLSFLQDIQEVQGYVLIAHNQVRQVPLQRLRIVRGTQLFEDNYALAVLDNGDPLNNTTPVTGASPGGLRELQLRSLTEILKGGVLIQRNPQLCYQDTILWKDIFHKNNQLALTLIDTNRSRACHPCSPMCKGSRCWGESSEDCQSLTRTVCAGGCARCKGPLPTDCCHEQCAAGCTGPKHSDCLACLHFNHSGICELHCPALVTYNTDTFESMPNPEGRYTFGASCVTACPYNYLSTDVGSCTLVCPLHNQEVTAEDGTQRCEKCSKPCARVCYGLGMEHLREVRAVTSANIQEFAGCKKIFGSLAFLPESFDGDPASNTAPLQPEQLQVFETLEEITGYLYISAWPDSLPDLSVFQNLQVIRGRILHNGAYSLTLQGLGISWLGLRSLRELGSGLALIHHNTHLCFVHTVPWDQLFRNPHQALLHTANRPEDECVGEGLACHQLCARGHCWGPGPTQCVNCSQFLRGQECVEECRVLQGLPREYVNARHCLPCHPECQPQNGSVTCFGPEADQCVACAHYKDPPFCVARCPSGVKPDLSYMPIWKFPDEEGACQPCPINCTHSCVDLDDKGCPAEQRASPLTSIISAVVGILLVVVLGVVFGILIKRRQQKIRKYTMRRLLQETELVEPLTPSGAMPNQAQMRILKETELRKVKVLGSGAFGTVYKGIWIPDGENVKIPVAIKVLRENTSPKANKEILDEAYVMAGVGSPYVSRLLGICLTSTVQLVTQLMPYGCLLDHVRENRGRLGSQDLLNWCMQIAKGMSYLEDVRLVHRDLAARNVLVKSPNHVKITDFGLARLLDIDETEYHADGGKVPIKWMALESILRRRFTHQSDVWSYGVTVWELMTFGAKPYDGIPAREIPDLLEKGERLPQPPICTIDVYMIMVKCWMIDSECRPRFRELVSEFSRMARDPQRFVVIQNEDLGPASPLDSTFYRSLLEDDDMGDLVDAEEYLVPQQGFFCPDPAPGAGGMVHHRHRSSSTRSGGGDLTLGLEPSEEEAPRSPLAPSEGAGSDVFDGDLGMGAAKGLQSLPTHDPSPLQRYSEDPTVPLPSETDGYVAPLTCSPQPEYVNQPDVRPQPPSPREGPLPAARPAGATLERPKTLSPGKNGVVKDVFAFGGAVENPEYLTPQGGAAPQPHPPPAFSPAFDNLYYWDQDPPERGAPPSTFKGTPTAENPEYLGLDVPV

inhibition at 1 µM [%]	Structure (SMILES)
> 80	Clc1ccc(/C=C/c2nc(COc3ccc(COCCn4ccnn4)cc3)co2)cc1 [Example 2, 1-[2-(4-{2-[2-(E)-(4-Chloro-phenyl)-vinyl]-oxazol-4-ylmethoxy}-benzyloxy)-ethyl]-1H-[1,2,3]triazole]
65 to 80	Fc1cc(Cl)ccc1/C=C/c1nc(COc2ccc(COCCn3ccnn3)cc2)co1 [Example 1, 1-[2-(4-{2-[2-(E)-(4-Chloro-2-fluoro-phenyl)-vinyl]-oxazol-4-ylmethoxy}-benzyloxy)-ethyl]-1H-[1,2,3]triazole]
